How the values were obtained:
[1] = early elimination of ^18F in urine; type: in vivo, human
Protocol: Urine collected pre-dose (Baseline), and all voids up to 8 hours post-dose were collected and assayed for ^18F. However, as in blood collection, the urine collection terminated near the 7-hour minimum specified in the protocol. Mean urinary excretion over the approximate 7-hour void interval was 4.83% ID with a % CV of 64.7 and a range of 0.64% ID to 12.41% ID. This finding is in reasonable agreement with cumulative urine excretion of 5% as measured with PET imaging.

normal subjects = assay: human safety, dosimetry, biodistribution and rest-stress myocardial imaging in normal subjects; type: in vivo
Protocol: 25 normal subjects were enrolled in 2 studies: 13 received 222 MBq I.V. At rest (R) only and 12 more subjects received 94 MBq at R and, on a second day, 124 MBq at peak adenosine stress (Adeno, n=6) or at peak treadmill exercise (Ex, n=6). Physical exam, laboratory, vital signs, ECG, and EEG were monitored pre- and post-injection. Myocardial (Myo), liver, blood pool and lung Standardized Uptake Values (SUV) were determined from sequential PET images over time. Mean dose for various organs and mean effective dose (ED in mSv/MBq) were estimated.

Question: What does the source list for `CC(C)(C)n1ncc(OCc2ccc(COCC[18F])cc2)c(Cl)c1=O` [imaging agent 1, 2-t-butyl-4-chloro-5-[4-(2-(^18F)fluoroethoxymethyl)-benzyloxy]-2H-pyridazin-3-1]?
Answer: Mean urinary excretion ([1]; approximate 7-hour void interval): 4.83 % ID; cumulative urine excretion as measured with PET imaging ([1]; in vivo): 5%; adverse events (normal subjects; 25 normal subjects): no adverse events related to the tracer; Adeno Myo SUV (normal subjects; 10 mins): 10.5 ± 1.5; Adeno Myo/liver (normal subjects; 10 mins): 1.9 ± 0.6; Exercise Myo SUV (normal subjects; 10 mins): 6.2 ± 2.1; Exercise Myo/liver (normal subjects; 10 mins): 28.0 ± 33.6; Rest Myo SUV (normal subjects; 10 mins): 3.9 ± 0.9; Rest Myo/liver (normal subjects; 10 mins): 1.0 ± 0.3; Adeno Myo SUV (normal subjects; 30 mins): 10.8 ± 2.1; Adeno Myo/liver (normal subjects; 30 mins): 2.0 ± 0.5; Exercise Myo SUV (normal subjects; 30 mins): 5.5 ± 1.0; Exercise Myo/liver (normal subjects; 30 mins): 5.6 ± 1.0; Rest Myo SUV (normal subjects; 30 mins): 4.2 ± 1.1; Rest Myo/liver (normal subjects; 30 mins): 0.9 ± 0.2; Adeno Myo SUV (normal subjects; 60 mins): 10.3 ± 2.1; Adeno Myo/liver (normal subjects; 60 mins): 2.2 ± 0.5; Exercise Myo SUV (normal subjects; 60 mins): 5.1 ± 0.9; Exercise Myo/liver (normal subjects; 60 mins): 5.6 ± 1.3; Rest Myo SUV (normal subjects; 60 mins): 4.5 ± 1.2; Rest Myo/liver (normal subjects; 60 mins): 1.1 ± 0.2; Adeno Myo SUV (normal subjects; 90 mins): 9.6 ± 2.1; Adeno Myo/liver (normal subjects; 90 mins): 2.6 ± 0.5; Exercise Myo SUV (normal subjects; 90 mins): 4.9 ± 0.9; Exercise Myo/liver (normal subjects; 90 mins): 5.8 ± 1.5; Rest Myo SUV (normal subjects; 90 mins): 4.3 ± 1.3; Rest Myo/liver (normal subjects; 90 mins): 1.4 ± 0.2; Adeno Myo SUV (normal subjects; 149 mins): 8.4 ± 2.1; Adeno Myo/liver (normal subjects; 149 mins): 3.8 ± 1.0; Exercise Myo SUV (normal subjects; 149 mins): 4.5 ± 0.8; Exercise Myo/liver (normal subjects; 149 mins): 5.5 ± 1.5; Rest Myo SUV (normal subjects; 149 mins): 4.1 ± 1.4; Rest Myo/liver (normal subjects; 149 mins): 2.1 ± 0.3; mean effective dose (ED) (normal subjects; at rest (R)): 0.019 mSv/MBq; mean effective dose (ED) (normal subjects; with adenosine stress (Adeno)): 0.019 mSv/MBq; mean effective dose (ED) (normal subjects; with exercise (Ex)): 0.015 mSv/MBq

Source: patent publication US10842892B2, “Methods and apparatus for synthesizing imaging agents, and intermediates thereof” (Lantheus Medical Imaging, Inc., priority 2010, dated 2020)
